# Test results from PMC5485613, “A novel TRPM8 agonist relieves dry eye discomfort” (BMC Ophthalmology, 2017).
# Key:
# [1] = tested on: patients with dry eye disease; assay: Four times daily application for 2 weeks in patients with dry eye disease (Expt 2); type: in vivo, human
# Method: Initially, a total of 60 additional patients fulfilling the inclusion criteria were assessed for eligibility, and 54 subjects who decided to participate were randomized into two groups as described above (Additional file 1: Figure S4). Vehicle or C3 were prepared as 1 mL solutions placed into unit applicators called Swabdose™ made by Unicep Corporation, Sandpoint, ID. These applicators are singly encased in a polypropylene container with a 6.35 mm cotton tip attached to a 74.6 mm polystyrene handle. USP purified water (placebo units) or a C3 sample (2 mg/mL in USP purified water) was prepared onsite under clean conditions and packaged with automated equipment. Each subject was given 14 Swabdoses for the 2-week study period. The subjects were instructed to apply the cotton-tipped applicator to the edges of the closed eyelids once every 6 h per day for 14 days. The applicators were pre-weighed and the subjects were told to use to same applicator for each day and to save the applicator in a plastic bag at the end of the day. The applicators were collected, weighed and compared with the weight before application. TBUT, basal tear secretion, and corneal staining assessed by KEP scores were analyzed before and at 1 and 2 weeks thereafter. For TBUT, basal tear secretion, and KEP only the results from the right eye were scored for data analysis.
# Three questionnaires were used at each patient visit to analyze the effects of treatment on ocular discomfort. Firstly, DED symptoms were assessed using a visual analogue scale (VAS) score of 1 to 10. Next, symptoms were assessed using the ocular surface disease index (OSDI) questionnaire, consisting of 12 questions graded on a scale from 0 to 4 (0 = “none of the time” and 4 = “all the time”). An overall score was calculated (0–100) by using the following equation: (25 × (sum of answered question scores/number of questions answered)). Participants were also asked to grade five symptoms associated with the CVS. The symptoms of fatigue, burning, dryness, blurred vision, and dullness of vision was ranked on a scale of 0 to 6 (0 = “no symptom”, 6 = “very severe symptom”) and the average aggregate score for the two test groups are reported.
# human TRPA1 = biological target: T1, human TRPA1 (Homo sapiens, UniProt O75762); assay: TRPA1 calcium imaging (Fura-2) in transfected KNRK cells; type: cell-based; settings: 10 μM
# T1 construct: expressed in transfected cells; host or cells: KNRK cells (rat kidney), transiently transfected
# T1 sequence (O75762 whole entry): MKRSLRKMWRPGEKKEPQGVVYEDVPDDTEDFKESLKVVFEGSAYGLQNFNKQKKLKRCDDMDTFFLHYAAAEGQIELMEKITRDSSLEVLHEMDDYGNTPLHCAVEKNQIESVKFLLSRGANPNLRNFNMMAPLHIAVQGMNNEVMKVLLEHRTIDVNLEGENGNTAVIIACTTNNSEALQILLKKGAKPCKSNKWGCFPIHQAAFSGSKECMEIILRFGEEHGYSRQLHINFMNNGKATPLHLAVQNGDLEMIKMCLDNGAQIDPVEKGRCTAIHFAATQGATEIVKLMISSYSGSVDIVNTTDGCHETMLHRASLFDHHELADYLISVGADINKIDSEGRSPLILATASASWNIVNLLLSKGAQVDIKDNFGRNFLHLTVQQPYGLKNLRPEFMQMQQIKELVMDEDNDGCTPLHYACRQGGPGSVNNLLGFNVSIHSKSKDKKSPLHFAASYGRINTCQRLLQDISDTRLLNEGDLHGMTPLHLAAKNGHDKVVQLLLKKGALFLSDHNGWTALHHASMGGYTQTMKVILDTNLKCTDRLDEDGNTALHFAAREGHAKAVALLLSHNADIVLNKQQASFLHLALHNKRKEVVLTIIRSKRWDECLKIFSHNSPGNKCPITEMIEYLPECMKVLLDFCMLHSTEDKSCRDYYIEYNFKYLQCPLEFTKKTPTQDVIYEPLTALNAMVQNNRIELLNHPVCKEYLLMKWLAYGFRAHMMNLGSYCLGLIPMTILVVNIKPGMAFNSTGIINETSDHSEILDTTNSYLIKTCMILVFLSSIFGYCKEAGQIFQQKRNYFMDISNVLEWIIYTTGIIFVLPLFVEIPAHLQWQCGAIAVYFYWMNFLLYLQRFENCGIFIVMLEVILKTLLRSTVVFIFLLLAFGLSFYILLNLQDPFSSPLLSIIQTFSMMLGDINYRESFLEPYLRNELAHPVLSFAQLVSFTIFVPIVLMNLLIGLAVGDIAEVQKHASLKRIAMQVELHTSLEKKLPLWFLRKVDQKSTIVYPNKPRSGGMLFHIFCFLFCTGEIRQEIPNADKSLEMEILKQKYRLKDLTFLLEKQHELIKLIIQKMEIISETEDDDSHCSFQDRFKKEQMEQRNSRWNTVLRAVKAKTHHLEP
# Method: To further examine the specificity of C3, tests were conducted on TRPV1 channels and TRPA1 channels expressed in Kirsten murine sarcoma virus transformed rat kidney (KNRK) cells. KNRK cells were cultured as a monolayer and maintained in Dulbeccos’s Modified Eagles’s Medium (Life Technologies), supplemented with 10% fetal bovine serum (Life Technologies), 100 units/mL penicillin and 100 μg/mL streptomycin, in an incubator of 5% CO2 at 37 °C. After suspension, the cells were coated on cover slips for 12 h, then transiently transfected with cDNA (pc3.1 DNA) for TRPV1 or TRPA1 with Lipofectamine 2000 (Invitrogen) for 24 h, and loaded with Fura-2 AM™ (Molecular Probes) for 40 min at 37 °C. After washing and recovery, KNRK cells were imaged at 340 and 380 nm excitation to detect free calcium influx. An increase of 50% of the 340/380 ratio was considered as the response threshold which were measured under masked conditions for plasmids. Compounds were applied to the bath and calcium response was acquired by an inverted Nikon fluorescence microscope with a CoolSnap HQ2 CCD camera (Photometrics, Tucson, AZ). Data were quantified offline with the Nikon-NIS program.
# [2] = 2 mg/mL four times a day, versus vehicle
# [3] = 2 mg/mL four times a day, week 1 or week 2, n = 20
structure (smiles),measurement,setting,value
"CCCCCCCCCP(=O)(C(C)C)C(C)C [C3, 1-diisopropylphosphorylnonane]",CVS type of symptoms,"[1]; 2 mg/mL four times a day, 1 and 2 weeks",significantly improved
same,basal tear secretion,"[1]; 2 mg/mL four times a day, 1 and 2 weeks, versus baseline and vehicle",significantly increased
same,severity of symptoms by VAS score,[1]; [2],significantly improved at week 2 but not at week 1
same,total OSDI score,[1]; [2],significantly improved at week 2 but not at week 1
same,KEP,[1]; [3],no significant changes
same,TBUT,[1]; [3],no significant changes
same,"adverse effect (ocular pain, irritation, discomfort)",[1]; 2 weeks study,No significant adverse effect
same,activation of TRPA1 (calcium response),human TRPA1,inactive
